Measurements: patent US9120785B2, “Pyridyl aminopyridines as Syk inhibitors” (Merck Sharp & Dohme Corp., priority 2011, dated 2015)
Like-named read-outs stand apart in the source and are kept apart here.

Target: recombinant human GST-Syk (Homo sapiens (Human), UniProt P43405)
Experiment: Homogeneous Time-Resolved Fluorescence (HTRF) assay for the recombinant human Syk enzyme
Type: biochemical
Settings: recombinant human GST-Syk 5 pM, ATP 25 μM
Procedure: Homogeneous Time-Resolved Fluorescence (HTRF) Assay for the Recombinant Human Syk Enzyme:
A recombinant GST-hSyk fusion protein was used to measure potency of compounds to inhibit human Syk activity. The recombinant human GST-Syk ([…] #08-176) (5 pM final concentration) was incubated with various concentrations of the inhibitor diluted in DMSO (0.1% final concentration) for 10 minutes at room temperature in 15 mM Tris-HCl (pH 7.5), 0.01% tween 20, 2 mM DTT in 384 well plate format. To initiate the reaction the biotinylated substrate peptide (250 nM final concentration) that contains the phosphorylation site for Syk was added with magnesium (5 mM final concentration) and ATP (25 μM final concentration). Final volume of the reaction was 10 μL. Phosphorylation of the peptide was allowed to proceed for 45 minutes at room temperature. To quench the reaction and detect the phosphorylated product, 2 nM of a Europium-anti-phosphotyrosine antibody (Perkin Elmer #AD0161) and 70 nM SA-APC (Perkin-Elmer #CR130-100) were added together in 15 mM Tris pH 7.5, 40 mM EDTA, 0.01% tween 20. Final volume of the quenching solution was 10 μL. The resulting HTRF signal was measured after 30 minutes on an EnVision (Perkin-Elmer) reader using a time-resolved fluorescence protocol.

[1] = class symbols, read-out: rhSyk activity (IC50)

Compound	IC50 [1] [nM]	IC50 (10-dose titration, read-out: rhSyk (nM) IC50) [nM]
Cc1cc(Nc2cc(C(F)(F)F)ccn2)nc(-c2cnc(C(O)(C3CC3)[C@H]3CC[C@H](C(=O)O)CC3)s2)c1 (single isomer, unassigned) [Example 14-17, trans-4-{cyclopropyl(hydroxy)[5-(4-methyl-6-{[4-(trifluoromethyl)pyridin-2-yl]amino}pyridin-2-yl)-1,3-thiazol-2-yl]methyl}cyclohexanecarboxylic acid]	≤ 100	
Cc1cc(Nc2cc(C(F)(F)F)ccn2)nc(-c2cnc(C(O)(C3CC3)[C@H]3CC[C@H](C(=O)O)CC3)s2)c1 (single isomer, unassigned) [Example 14-18, trans-4-{cyclopropyl(hydroxy)[5-(4-methyl-6-{[4-(trifluoromethyl)pyridin-2-yl]amino}pyridin-2-yl)-1,3-thiazol-2-yl]methyl}cyclohexanecarboxylic acid]	≤ 100	
Cc1cc(Nc2cc(C(F)(F)F)ccn2)nc(-c2cnc(C(O)([C@H]3CC[C@H](C(=O)O)CC3)C(F)(F)F)s2)c1 (single isomer, unassigned) [Example 14-19, trans-4-{2,2,2-trifluoro-1-hydroxy-1-[5-(4-methyl-6-{[4-(trifluoromethyl)pyridin-2-yl]amino}pyridin-2-yl)-1,3-thiazol-2-yl]ethyl}cyclohexanecarboxylic acid]	≤ 100	
Cc1cc(Nc2cc(C(F)(F)F)ccn2)nc(-c2cnc(C(O)([C@H]3CC[C@H](C(=O)O)CC3)C(F)(F)F)s2)c1 (single isomer, unassigned) [Example 14-20, trans-4-{2,2,2-trifluoro-1-hydroxy-1-[5-(4-methyl-6-{[4-(trifluoromethyl)pyridin-2-yl]amino}pyridin-2-yl)-1,3-thiazol-2-yl]ethyl}cyclohexanecarboxylic acid]	≤ 100	
CCC(O)(c1ncc(-c2cc(C)cc(Nc3cc(OC(C)C)ccn3)n2)s1)[C@H]1CC[C@H](C(=O)O)CC1 (single isomer, unassigned) [Example 14-21, trans-4-{1-hydroxy-1-[5-(4-methyl-6-{[4-(propan-2-yloxy)pyridin-2-yl]amino}pyridin-2-yl)-1,3-thiazol-2-yl]propyl}cyclohexanecarboxylic acid]	≤ 100	
CCC(O)(c1ncc(-c2cc(C)cc(Nc3cc(OC(C)C)ccn3)n2)s1)[C@H]1CC[C@H](C(=O)O)CC1 (single isomer, unassigned) [Example 14-22, trans-4-{1-hydroxy-1-[5-(4-methyl-6-{[4-(propan-2-yloxy)pyridin-2-yl]amino}pyridin-2-yl)-1,3-thiazol-2-yl]propyl}cyclohexanecarboxylic acid]	≤ 100	
Cc1cc(Nc2cc(OC(C)C)ccn2)nc(-c2cnc(C(O)(C3CC3)[C@H]3CC[C@H](C(=O)O)CC3)s2)c1 (single isomer, unassigned) [Example 14-23, trans-4-{cyclopropyl(hydroxy)[5-(4-methyl-6-{[4-(propan-2-yloxy)pyridin-2-yl]amino}pyridin-2-yl)-1,3-thiazol-2-yl]methyl}cyclohexanecarboxylic acid]	≤ 100	
Cc1cc(Nc2cc(OC(C)C)ccn2)nc(-c2cnc(C(O)(C3CC3)[C@H]3CC[C@H](C(=O)O)CC3)s2)c1 (single isomer, unassigned) [Example 14-24, trans-4-{cyclopropyl(hydroxy)[5-(4-methyl-6-{[4-(propan-2-yloxy)pyridin-2-yl]amino}pyridin-2-yl)-1,3-thiazol-2-yl]methyl}cyclohexanecarboxylic acid]	≤ 100	
Cc1cc(Nc2cc(OC(C)C)ccn2)nc(-c2cnc(C(O)([C@H]3CC[C@H](C(=O)O)CC3)C(F)(F)F)s2)c1 (single isomer, unassigned) [Example 14-25, trans-4-{2,2,2-trifluoro-1-hydroxy-1-[5-(4-methyl-6-{[4-(propan-2-yloxy)pyridin-2-yl]amino}pyridin-2-yl)-1,3-thiazol-2-yl]ethyl}cyclohexanecarboxylic acid]	≤ 100	
Cc1cc(Nc2cc(OC(C)C)ccn2)nc(-c2cnc(C(O)([C@H]3CC[C@H](C(=O)O)CC3)C(F)(F)F)s2)c1 (single isomer, unassigned) [Example 14-26, trans-4-{2,2,2-trifluoro-1-hydroxy-1-[5-(4-methyl-6-{[4-(propan-2-yloxy)pyridin-2-yl]amino}pyridin-2-yl)-1,3-thiazol-2-yl]ethyl}cyclohexanecarboxylic acid]	≤ 100	
Cc1cc(Nc2cc(C(F)(F)F)ccn2)nc(-c2cnc(C(O)[C@H]3CC[C@H](C(=O)O)CC3)s2)c1 (single isomer, unassigned) [Example 14-28, trans-4-{hydroxy[5-(4-methyl-6-{[4-(trifluoromethyl)pyridin-2-yl]amino}pyridin-2-yl)-1,3-thiazol-2-yl]methyl}cyclohexanecarboxylic acid]	≤ 100	1.1
Cc1cc(Nc2cc(C(F)(F)F)ccn2)nc(-c2cnc(C(O)[C@H]3CC[C@H](C(=O)O)CC3)s2)c1 (single isomer, unassigned) [Example 14-29, trans-4-{hydroxy[5-(4-methyl-6-{[4-(trifluoromethyl)pyridin-2-yl]amino}pyridin-2-yl)-1,3-thiazol-2-yl]methyl}cyclohexanecarboxylic acid]	≤ 100	
Cc1ccnc(Nc2cccc(-c3cnc(C(C)(O)[C@H]4CC[C@H](C(=O)O)CC4)s3)n2)c1 (single isomer, unassigned) [Example 14-39, trans-4-[1-hydroxy-1-(5-{6-[(4-methylpyridin-2-yl)amino]pyridin-2-yl}-1,3-thiazol-2-yl)ethyl]cyclohexanecarboxylic acid]	≤ 100	
Cc1ccnc(Nc2cccc(-c3cnc(C(C)(O)[C@H]4CC[C@H](C(=O)O)CC4)s3)n2)c1 (single isomer, unassigned) [Example 14-40, trans-4-[1-hydroxy-1-(5-{6-[(4-methylpyridin-2-yl)amino]pyridin-2-yl}-1,3-thiazol-2-yl)ethyl]cyclohexanecarboxylic acid]	≤ 100	
CC(O)(c1ncc(-c2cc(Cl)cc(Nc3cc(C(F)(F)F)ccn3)n2)s1)[C@H]1CC[C@H](C(=O)O)CC1 (single isomer, unassigned) [Example 14-52, trans-4-{1-[5-(4-chloro-6-{[4-(trifluoromethyl)pyridin-2-yl]amino}pyridin-2-yl)-1,3-thiazol-2-yl]-1-hydroxyethyl}cyclohexanecarboxylic acid]	≤ 100	
CC(O)(c1ncc(-c2cc(C(F)F)cc(Nc3cc(C(F)(F)F)ccn3)n2)s1)[C@H]1CC[C@H](C(=O)O)CC1 (single isomer, unassigned) [Example 14-53, trans-4-{1-[5-(4-(difluoromethyl)-6-{[4-(trifluoromethyl)pyridin-2-yl]amino}pyridin-2-yl]-1,3-thiazol-2-yl}-1-hydroxyethyl)cyclohexanecarboxylic acid]	≤ 100	
CC(O)(c1ncc(-c2cc(C3CC3)cc(Nc3cc(C(F)(F)F)ccn3)n2)s1)[C@H]1CC[C@H](C(=O)O)CC1 (single isomer, unassigned) [Example 14-54]	≤ 100	
Cc1cc(Nc2cc(C(F)(F)F)ccn2)nc(-c2cnc(C(C)(O)C3CCC(C(=O)O)C(C)C3)s2)c1 (single isomer, unassigned) [Example 15-1, 4-{1-hydroxy-1-[5-(4-methyl-6-{[4-(trifluoromethyl)pyridin-2-yl]amino}pyridin-2-yl)-1,3-thiazol-2-yl]ethyl}-2-methylcyclohexanecarboxylic acid]	≤ 100	
